# According to PubChem BioAssay (NCI):
#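 Values below derive from 48-hour exposures of cells grown in 96-well plates, with endpoints linearly interpolated between the two concentrations bracketing the appropriate inhibition level. GI50 marks 50% less growth. TGI: concentration producing complete growth inhibition.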
# Tests used:
# Experiment in all cases: DTP human tumour cell line panel, 48 h
# [1] = tested on: SF-295 CNS
# [2] = tested on: SF-539 CNS
# [3] = tested on: NCI-H226 lung
# [4] = tested on: KM12 colon
# [5] = tested on: SK-OV-3 ovarian
# [6] = tested on: EKVX NSCLC
# [7] = tested on: NCI-H460 lung
# [8] = tested on: A549 NSCLC
# [9] = tested on: SK-MEL-28 melanoma
# [10] = tested on: HOP-62 NSCLC
Compound,GI50 [1],TGI [1],GI50 [2],TGI [2],GI50 [3],TGI [3],GI50 [4],TGI [4],GI50 [5],TGI [5],GI50 [6],TGI [6],GI50 [7],TGI [7],GI50 [8],TGI [8],TGI [9],GI50 [9],GI50 [10],TGI [10]
Cc1cn2c(/C=N/N=C(N)N)c(-c3cccs3)nc2s1,3.28 µM,14.4 µM,1.6 µM,3.12 µM,4.18 µM,18.9 µM,2.39 µM,8.3 µM,17.5 µM,37.6 µM,8.8 µM,21.1 µM,5.46 µM,26.7 µM,10.6 µM,31.1 µM,–,–,–,–
C=C[C@@]1(O)CCCC2=C(C(=O)OCC)CC[C@]21C,–,> 100 µM,–,> 100 µM,–,> 100 µM,–,> 100 µM,–,> 100 µM,–,> 100 µM,–,> 100 µM,–,> 100 µM,> 100 µM,–,–,–
COc1cc(-c2nc(-c3nc4ccccc4[nH]3)cc3c2[nH]c2ccccc23)cc(OC)c1OC,–,–,23.1 µM,> 100 µM,7.19 µM,> 100 µM,3.67 µM,> 100 µM,> 100 µM,> 100 µM,–,–,3.96 µM,> 100 µM,3.2 µM,> 100 µM,> 100 µM,6.89 µM,5.87 µM,> 100 µM
Nc1ccn(C2OC(COC(=O)C34CC5CC(CC(C5)C3)C4)C(O)C2O)c(=O)n1 (stereo unspecified),–,> 100 µM,–,> 100 µM,–,> 100 µM,–,> 100 µM,–,> 100 µM,–,> 100 µM,–,> 40.8 µM,–,> 100 µM,> 100 µM,–,–,–
COc1ccc(OC)c2c1[nH]c(=O)c1c3ncccc3cn21,2.92 µM,> 100 µM,3.96 µM,> 100 µM,2.41 µM,> 100 µM,4.23 µM,> 100 µM,4.63 µM,> 100 µM,4.91 µM,> 100 µM,1.61 µM,3.39 µM,2.83 µM,15.3 µM,–,–,3.22 µM,> 100 µM
N#CCN/C=C\C(=O)c1ccc(Cl)cc1,28 µM,> 100 µM,27 µM,68.3 µM,30 µM,> 100 µM,36.5 µM,> 100 µM,34.7 µM,> 100 µM,–,–,42.1 µM,> 100 µM,> 100 µM,> 100 µM,> 100 µM,40.1 µM,38.6 µM,> 100 µM
COc1ccc2nc3cc([N+](=O)[O-])ccc3c(NCCCN(C)C)c2c1,0.35 µM,2.39 µM,0.52 µM,3.19 µM,0.251 µM,2.42 µM,–,–,0.231 µM,3.13 µM,2.25 µM,7.91 µM,0.0409 µM,1.5 µM,0.278 µM,10.1 µM,2.87 µM,0.504 µM,0.0315 µM,0.202 µM
COc1cc(CNc2ccccc2C(=O)N2CCN(C(=O)c3cc(-c4cc(OC)c(OC)c(OC)c4)n4nc(-c5ccccc5)cc4n3)CC2)cc(OC)c1OC,–,–,2.54 µM,> 100 µM,4.44 µM,59.4 µM,2.78 µM,> 100 µM,4.42 µM,38.4 µM,4.96 µM,> 100 µM,3.32 µM,> 100 µM,3.55 µM,> 100 µM,> 100 µM,5.24 µM,6.04 µM,> 100 µM
O=c1[nH]c2cc(Cl)ccc2nc1/C(=N\O)C(O)c1ccc([N+](=O)[O-])cc1 (stereo unspecified),–,> 100 µM,–,> 100 µM,–,–,–,> 100 µM,–,> 100 µM,–,> 100 µM,–,> 100 µM,–,> 100 µM,–,–,–,> 100 µM
CC1=NN(C(=O)c2ccc([N+](=O)[O-])cc2)C(=O)C1N=Nc1ccccc1C(=O)O (stereo unspecified),–,> 100 µM,–,> 100 µM,–,> 100 µM,–,> 100 µM,–,> 100 µM,–,> 100 µM,–,> 100 µM,–,> 100 µM,> 100 µM,–,–,–
N#CC1=C(N)NC(N2CCOCC2)=NC12Nc1ccccc1N2,32.6 µM,> 100 µM,36.3 µM,> 100 µM,27.3 µM,> 100 µM,> 100 µM,> 100 µM,58.1 µM,> 100 µM,> 100 µM,> 100 µM,–,–,39.8 µM,> 100 µM,> 100 µM,55.8 µM,6.09 µM,32.5 µM
COc1ccc(/C=N\Nc2ccc([N+](=O)[O-])cn2)cc1OC,> 100 µM,> 100 µM,4.37 µM,23.4 µM,8.39 µM,> 100 µM,–,–,3.48 µM,24.3 µM,> 100 µM,> 100 µM,–,–,–,–,> 100 µM,> 100 µM,10.5 µM,> 100 µM
C/C=C/CC(C)[C@@H](O)[C@H](NC)C(=O)O (stereo partly specified),–,> 100 µM,–,> 100 µM,–,–,–,> 100 µM,–,> 100 µM,–,> 100 µM,–,> 100 µM,–,> 100 µM,> 100 µM,–,–,> 100 µM
Cc1cc(C)c(Cn2cnc3c(Cl)ncnc32)c(C)c1CCl,> 100 µM,> 100 µM,> 100 µM,> 100 µM,> 100 µM,> 100 µM,31.1 µM,> 100 µM,53.7 µM,> 100 µM,> 100 µM,> 100 µM,32.7 µM,> 100 µM,37.7 µM,> 100 µM,–,–,> 100 µM,> 100 µM
CN/N=C(\C)C(CN(C)C)C(c1ccccc1)c1c(O)c2ccccc2oc1=O (stereo unspecified),–,> 100 µM,–,> 100 µM,–,> 100 µM,–,> 100 µM,–,–,–,> 100 µM,–,> 100 µM,–,> 100 µM,> 100 µM,–,–,> 100 µM
SCCSCCCSCCS,–,> 100 µM,–,> 100 µM,–,–,–,> 100 µM,–,> 100 µM,–,> 100 µM,–,> 100 µM,–,> 100 µM,> 100 µM,–,–,> 100 µM
